The source of these data is US20260345654A1, “2,8-DIHYDROXYQUINOLINE GLUCURONIDE DERIVATIVES WITH ENHANCED PROPERTIES FOR USE AS ANTICANCER, ANTIVIRAL, ANTIMICROBIAL, AND OTHER THERAPEUTIC APPLICATIONS” (priority 2023, published 2026).

Structures are written as SMILES. Like-named read-outs stand apart in the source and are kept apart here. Where only a bound is given, the exact number is not on record here.

For one series, the system named is BT-549 cells. In words: In vitro anti-proliferation (CellTiter-Glo, 72 hr), BT-549. The series is classed as cell-based. The procedure:
(§1) Commercially available 8HQ and freshly synthesized G2-8HQ were prepared for in vitro anti-proliferative studies against the following cell lines with and without the presence of 10 μM Cu(+2): (1) A549: […]; (2) BT-549: epithelial cells from ductal tumor; (3) DU-145: human prostate cancer; (4) PANC-1: pancreatic cancer; (5) SU.86.86: a new adoptive pancreatic cell for immunotherapy studies; (6) RL: non-Hodgkin's lymphoma; (7) LnCAP, Prostate cancer cell line; (8) A431, a squamous cell carcinoma line; and (9) UACC-62 a malignant melanoma cell line.
(§2) With regard to the study protocol used, the objective was to conduct a study of the cytotoxicity of W1469 against several cancer cell lines. In the study protocol, preparations for the A549 (Lung) cell line screen are given as an example. The following materials were used: (1) FBS (2) RPMI-1640 medium supplemented with 10% FBS:’ and (3) A549 Cells. The four samples tested are referred to as Items 1-4 below and were placed at 4 °C upon arrival. These four samples were as follows: • Item 1: Tube A (W1469) (500 uM when FBS added) • Item 2: Tube B (W1469g) (1000 uM when FBS added) • Item 3: Tube C (W1469) • Item 4: Tube D (W1469g)
(§3) Add 50 μL of above 2× stocks to appropriate wells to expose appropriate cells to the final dilutions of samples. Add 50 μL media to media and cell control wells and 50 μL media mix to vehicle control wells. Cells are exposed for 72 hr. Following a 72 hr exposure to Sample, perform a CTG assay on all remaining plates.
(§4) At the end of the 72 hr exposure period, remove plates for CellTiter-Glo assay from 37 °C, 5% CO2 incubator and place on the bench at room temperature for 30 mins. Add 100 μL CellTiter-Glo reagent, mix for 2 mins, followed by a further 10 min incubation at room temperature. Record luminescence. Tables showing the resulting plate layouts are included below/

Series [1] has as its system basal cell and squamous cell cancer. In words: Case studies overview, topical W1469. Format: in vivo, human. The procedure:
Topical gel containing 0.5 mg/ml W1469 in proprietary aqueous alcohol gel, applied initially once daily using a suitable topical applicator.
In general, the Treatment/Patient protocol used for the patient testing was as follows: • 1. Photograph the application site prior to starting the protocol. Note any changes in lesion size, color, etc. of treatment area. • 2. Remove a loaded syringe from the freezer, dry ice or refrigerator and allow to gradually warm to room temperature. • 3. Photograph the syringe each time prior to application. Note the color of the gel contained in the syringe. • 4. Lightly clean the skin surface with alcohol wipe. • 5. […] Let the liquid from the gel absorb into the site without disturbing. Apply once a day at the same time. • 6. Re-cap the syringe and store in the refrigerator until completely used. • 7. Repeat 1-6 each daily during application period. It is noted in this protocol that photographing the syringe used with each application period accomplishes two things.
• 1. Toleration/toxicity • 2. Application methodology • 3. Any visual indications of efficacy • 4. Patient feedback Study Duration: Varied case by case. Generally, two weeks to two months

A further series relates to DU-145 cells. In words: In vitro anti-proliferation (CellTiter-Glo, 72 hr), DU-145. Format: cell-based, human. The procedure:
as §1, §2, §3, §4
(In ATP-based viability assays light output follows the ATP content of the culture.)

The subject of a further series is A549 cells. The experiment in a line: In vitro anti-proliferation (CellTiter-Glo, 72 hr), A549. The series is classed as cell-based, human. As to the method: as §1, §2
Items 1 and 2 are sterile ready for the addition of 1 ml of sterile FBS. Final concentrations after addition of 1 ml: 500 μM for Tube A and 1000 μM for Tube B. Items 3 and 4 are described further below. In the protocol, media containing 10% FBS and 20 μM CuCl2 are used in Tubes C and D only. A and B are serially diluted in media with 10% FBS and no added copper.
The protocol method proceeds as follows:
Seed 2, 96-well plates of A549 cells with 5,000 cells per well in a total volume of 50 μL per well. Leave overnight. See plate layout below for which wells to seed with 100 μL of media for media control. The following day, cells are exposed to compounds as described below.
For Items 1 & 2, to make the 500 μM and 1000 μM Stocks of samples 1 and 2 (W1469 and W1469g): Add 1 ml of sterile FBS to each Tube A and Tube B, swirl to mix.
To make appropriate 2× final dilutions of sample 1, Tube A (W1469), the following amounts are used: • 500 μM: 10 mL as supplied • 100 μM: 2 mL 500 μM Sample+8 mL media • 30 μM: 3 mL 100 μM Sample+7 mL media • 10 μM: 3 mL 30 μM Sample+6 mL media • 3 μM: 3 mL 10 μM Sample+7 mL media • 1 μM: 3 mL 3 μM Sample+6 mL media • 0.3 μM: 3 mL 1 μM Sample+7 mL media • 0.1 μM: 3 mL 0.3 μM Sample+6 mL media
To make appropriate 2× final dilutions of sample 2, Tube B (W1469g), the following amounts are used: • 1000 μM: 10 mL as supplied • 300 μM: 3 mL 1000 μM Sample+7 mL media • 100 μM: 3 mL 300 μM Sample+6 mL media • 30 μM: 3 mL 100 μM Sample+7 mL media • 10 μM: 3 mL 30 μM Sample+6 mL media • 3 μM: 3 mL 10 μM Sample+7 mL media • 1 μM: 3 mL 3 μM Sample+6 mL media • 0.3 μM: 3 mL 1 μM Sample+7 mL media
For Items 3 & 4, the following protocol was used to make 1000 uM Stocks of samples 3 and 4 (W1469 and W1469g): • 1: Dissolve 3.37 mg W1469 and excipient (Tube C) in 1 ml RPMI medium without added FBS and copper and swirl briefly until completely dissolved. Add 9 ml of RPMI media containing 10% FBS and 20 uM copper. Swirl to mix. Sterile filter the 10 ml with provided syringes and filters. This is now the 1000 μM stock solution W1469 ready for screening • 2: Dissolve 3.2 mg W1469g and excipient (Tube D) in 1 ml RPMI medium without added FBS and copper and swirl briefly until completely dissolved. […] This is now the 1000 μM stock solution W1469g ready for screening. […]

[2] abbreviates: 1 and 0.5 μM, presence of Cu^+2 ions, wide standard deviation.
The mark [3] stands for this setting: +Cu (10 μM), 72 hr, G2-8HQ values based on MW of apo form (337), read-out: IC50.
Setting [4] is: complexed with Cu, multiplied by 337/776=0.43, column 3 duplicate of column 2, listed as W1469, read-out: IC50 (adjusted to MW of copper complex).

What is called IC50 is the midpoint of a concentration-inhibition curve. For the compound `O=C(O)[C@H]1O[C@@H](Oc2ccc3cccc(O)c3n2)[C@H](O)[C@@H](O)[C@@H]1O` [G2-8HQ, 8-Hydroxy-2-quinolinyl beta-D-glucopyranosiduronic acid], the cytotoxicity result in the series with BT-549 cells (setting [2]), in the series on DU-145 cells (setting [2]) and with A549 cells (setting [2]) was “in some percentage of the screens all the cancer cells were killed at these concentrations” each time. Moreover, the IC50 was 8.6 µM in the series with BT-549 cells (setting [3]); 5.6 µM in the series on BT-549 cells (Homo sapiens, BT-549, 72 h, +Cu (10 μM), 72 hr, G2-8HQ values based on MW of apo form (337), read-out: IC50); > 500 µM in the series with BT-549 cells (Homo sapiens, BT-549, 72 h, −Cu, 72 hr, read-out: IC50); 2.4 µM in the series on BT-549 cells (Homo sapiens, BT-549, complexed with Cu, multiplied by 337/776=0.43, column 3 duplicate of column 2, read-out: IC50 (adjusted to MW of copper complex)); 3.7 µM in the series with BT-549 cells (setting [4]); 8.7 µM in the series on DU-145 cells (setting [3]). For the same compound, the IC50 is 7.3 µM in the series on DU-145 cells (Homo sapiens, DU-145, 72 h, +Cu (10 μM), 72 hr, G2-8HQ values based on MW of apo form (337), read-out: IC50); > 500 µM in the series on DU-145 cells (Homo sapiens, DU-145, 72 h, −Cu, 72 hr, read-out: IC50); 3.1 µM in the series with DU-145 cells (Homo sapiens, DU-145, complexed with Cu, multiplied by 337/776=0.43, column 3 duplicate of column 2, read-out: IC50 (adjusted to MW of copper complex)); 3.7 µM in the series with DU-145 cells (setting [4]); > 500 µM in the series with A549 cells (Homo sapiens, A549, 72 h, −Cu, 72 hr). The Side Effects result in series [1] (all 4 case studies) is on record as “No side effects were noted”. Besides, in series [1] (all 4 case studies), the “appearance of skin surrounding the cancer lesion(s)” value is recorded as “Marked improvements in general appearance of skin surrounding the cancer lesion(s)”. The cancer lesion size result in series [1] (all 4 case studies) was “Progressive reduction of cancer lesion size”. The dose dependency entry in series [1] (all 4 case studies) is given as “higher concentrations work better”. Also, the “effect on adjacent tissue” value in series [1] (all 4 case studies) was “Doesn't inflame or injure adjacent tissue”. Further, in series [1] (all 4 case studies), the “pain of treatment and application” value was “not painful”. Also, in series [1] (all 4 case studies), the “time to rapid elimination of pain and visible inflammation” value lay within 2 to 5 days. Moreover, the toxicity entry in series [1] (topical gel 0.5 mg/ml, once daily initially) is listed as “no toxicity was observed”. For the same compound, the “improvement of cytotoxicity in presence of copper” value in the series with A549 cells (A549, 10 or 20 μM Cu^+2 vs −Cu) was 8-18 fold.
